We go through eleven compounds from patent EP0220873B1, “Fused bicyclic imides with psychotropic activity” (priority 1985, dated 1987).

The target of experiment [1] is T1, limbic D-2 dopamine receptor (Rattus norvegicus, UniProt P61169).
T1 construct: Limbic brain tissue (nucleus accumbens, septal area, olfactory tubercle) is dissected; from tissue; host or cells: rat limbic brain tissue (nucleus accumbens, septal area, olfactory tubercle) homogenate
Kind of experiment: biochemical. The settings on record: for Ki: Table 1, 0.3 nM 3H-spiroperidol, rat limbic brain tissue, read-out: Limbic D-2 Binding (KinM); for inhibition at 1 µM: read-out: Limbic D-2 Binding, % inhibition at 1 µM. The format is binding, rats.

The test system of experiment [2] is avoidance responding. The experiment is described as follows: conditioned avoidance (shelf-jump response) test. To be noted: i.p., active dose. The format is in vivo, Male CD rats. As for the experimental part:
Another test designed to determine the potential antipsychotic activity of the compounds of the invention is the conditioned avoidance (shelf-jump response) test.
This test is carried out as follows: Male CD rats (Charles River) maintained at approximately 400-450 gm body weight are used. Previously trained rats are placed in plexiglass experimental chambers divided into two sections; a main chamber (10 1/2" x 6 3/4" x 11 7/8" high) and an elevated chamber or shelf (5 7/8" x 6 7/8" x 5 3/4"). A moveable wall, controlled by a motor, determines whether the rat has access to the shelf at any time during the experiment. The experimental chamber also contains a house light and sonalert. A steel grid floor in the main chamber is wired for presentation of electric shock. Each trial consists of a fifteen-second warning tone (conditioned stimulus), continuing for an additional fifteen seconds accompanied by electric shock, (unconditioned stimulus). A response (jumping onto the exposed shelf of the upper chamber) occurring during the initial fifteen-second warning tone is considered an avoidance response, while a response occurring during shock delivery is considered an escape response. Trials are presented on a fixed interval schedule of one minute. The session consists of thirty-six trials. Animals are run twice weekly with control sessions always preceding a drug run, and with at least one day intervening. Compounds are administered i.p. or p.o. at appropriate pre-treatment times to a minimum of five rats at each dose level over a range of doses.
The following experimental parameters are recorded by computer: (1) the number of avoidance responses, (2) the number of escape responses, and (3) the number of trials in which no response occurred.
(§1) Response counts are summed over all subjects at a given dose. […] This number is expressed as a percentage of the total trials. Control performance is arbitrarily assigned a value of 100% for avoidance and the dose calculated to produce a 50% block in avoidance responding (AB₅₀) is obtained from a dose-effect regression line fitted by the method of least squares. Potential antipsychotic compounds suppress avoidance responding and increase escape responding.

In experiment [3] the target is T2, 5-HT-1A serotonin receptor (Rattus norvegicus, UniProt P19327).
T2 construct: Hippocampal tissue is dissected and homogenized on ice; from tissue; host or cells: rat hippocampal membrane homogenate
T2 sequence (P19327 1-422): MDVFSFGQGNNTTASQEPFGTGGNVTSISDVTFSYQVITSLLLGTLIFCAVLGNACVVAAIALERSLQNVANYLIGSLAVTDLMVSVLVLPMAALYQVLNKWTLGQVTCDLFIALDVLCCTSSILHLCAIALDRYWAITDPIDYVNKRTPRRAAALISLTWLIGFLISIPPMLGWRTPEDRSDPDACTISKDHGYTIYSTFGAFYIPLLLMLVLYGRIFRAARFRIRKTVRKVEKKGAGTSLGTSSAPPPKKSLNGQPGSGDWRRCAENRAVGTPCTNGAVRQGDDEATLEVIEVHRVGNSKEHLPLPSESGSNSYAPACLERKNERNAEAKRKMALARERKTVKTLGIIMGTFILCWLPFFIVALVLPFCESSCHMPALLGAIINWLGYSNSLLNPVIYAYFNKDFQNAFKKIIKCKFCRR
Kind of experiment: ex vivo inhibition of 5-HT-1A serotonin receptor binding (3H-8-OH-DPAT, hippocampal membranes). Set-up: species or system rats. The protocol:
The assay is carried out as follows: Several groups of rats (4 - 6 rats/group) are injected with test compound or the appropriate vehicle. Thirty minutes later, unless otherwise noted, rats are decapitated and their brains removed. Various brain regions are dissected and rapidly frozen and maintained at -70°C until used.
Hippocampal tissue is dissected and homogenized on ice in 40 vols of buffer (50 mM Tris HCl, pH = 7.7) using a Polytron homogenizer at setting 5 for 3 x 15 sec bursts. The homogenate is then centrifuged at 20,000 rpm (RC5-B; 50,000 g) and the supernatant discarded. The pellet is resuspended in 40 vols of the same buffer and incubated at 37°C for 10 minutes to aid in the removal of endogenous serotonin. The homogenate is then centrifuged (as above) and the supernatant discarded. The pellet is then resuspended in 100 vols of buffer B (50 mM Tris HCl, pH = 7.7 containing 0.1% ascorbate, 10 µM pargyline and 4 mM CaCl₂) and sonicated. An aliquot is taken for protein determination by the Lowry method and the remainder stored frozen at -70°C until used.
The homogenate (50 µl; 0.4-0.6 mg protein/sample) is incubated with 100 µl (1.5-1.8 nM) ³H-8-hydroxy-2-(di-n-propylamino)tetraline in a final volume of 2 ml of buffer for 10 minutes at 37°C. At the end of the incubation, 3 ml of cold buffer A are added to each tube, and the contents rapidly filtered through Whatman GF/B glass filters. The filters are then rapidly washed 2 times with 3 ml of the same buffer, placed in scintillation vials, and shaken for 15 minutes with 10 ml of Hydrofluor (National Diagnostics)scintillation cocktail. The vials are then counted in a Packard 460 CD scintillation counter.
Specific binding is calculated for each of the treatment protocols and is defined as total binding less binding in the presence of excess unlabeled serotonin (1 µM). Specific binding obtained in vehicle-treated rats is compared to that obtained in animals receiving a single or various doses of test compound and expressed as percent of control. […] Linear regression analysis then yields a straight line with 95% confidence limits from which an IC₅₀ can be inversely predicted.

Experiment [4] has as its system avoidance responding. The experiment is described as follows: conditioned avoidance (discrete trial) test. The class given is in vivo, Male CD rats. The settings on record: Rattus norvegicus, po, read-out: Active at mg/kg (AB50 value). The protocol: The antipsychotic activity of the compounds of the invention is assessed via the conditioned avoidance (discrete trial) test. This test has excellent clinical correlation for antipsychotic activity.
The test is carried out as follows: Male CD rats (Charles River) maintained at approximately 400-450 gm body weight are used. Rats trained previously are placed in plexiglass experimental chambers equipped with a response lever, house light, and sonalert. A steel grid floor is wired for presentation of electric shock. Each trial consists of a fifteen-second warning tone (conditioned stimulus), continuing for an additional fifteen seconds accompanied by electric shock, (unconditioned stimulus). The rat can terminate a trial at any point by depression of the response lever. As response during the initial fifteen-second warning tone ends the trial before shock delivery and is considered avoidance response, while a response occurring during shock delivery is an escape response. Trials are presented on a variable interval schedule of two minutes. The session consists of sixty trials. Animals are run two to three times weekly with control sessions always preceding a drug run, and with at least one day intervening, compounds are administered i.p. or p.o. at appropriate pre-treatment times to a minimum of five to six rats at each dose level over a range of doses.
as §1

Where [5] appears, read: Table 4, 3H-8-OH-DPAT, rat hippocampal tissue, read-out: Inhibition Constant (Ki nm).

Structures can show the parent of a compound that is named as a salt. Where two headings read alike, the source gives them in different places. Marks after values point to notes of the source that are not given here.

T1 sequence (P61169 whole entry): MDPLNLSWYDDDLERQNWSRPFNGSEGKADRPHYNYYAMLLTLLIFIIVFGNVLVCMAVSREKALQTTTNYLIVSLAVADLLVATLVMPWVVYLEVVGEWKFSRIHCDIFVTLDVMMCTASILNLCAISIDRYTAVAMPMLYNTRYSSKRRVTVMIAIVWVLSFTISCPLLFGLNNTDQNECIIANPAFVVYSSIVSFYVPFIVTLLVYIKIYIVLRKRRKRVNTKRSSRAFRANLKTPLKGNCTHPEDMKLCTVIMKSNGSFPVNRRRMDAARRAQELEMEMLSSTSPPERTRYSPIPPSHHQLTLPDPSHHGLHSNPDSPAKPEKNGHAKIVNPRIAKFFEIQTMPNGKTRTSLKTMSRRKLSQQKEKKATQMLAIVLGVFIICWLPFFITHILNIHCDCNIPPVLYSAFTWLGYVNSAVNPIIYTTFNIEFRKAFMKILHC

Turning to `O=C1C2C3C=CC(CCCC3)C2C(=O)N1CCCCN1CCN(c2cncc(Cl)n2)CC1` (centres unmarked) [Example 8, 2-[4-[4-(6-Chloro-2-pyrazinyl)-1-piperazinyl]butyl]octahydro-4,9-etheno-1H-cycloocta[c]pyrrole-1,3(2H)-dione, dihydrochloride, sesquihydrate], the Ki is 345 nM in experiment [1] and 122 nM in experiment [3] (setting [5]). In the experiment with avoidance responding [2], the Active at mg/kg is given as 40 (i.p.) mg/kg.

By inhibition is commonly meant the share of the control response that was lost under treatment. Regarding `O=C1C2C3C=CC(C4CCC34)C2C(=O)N1CCCCN1CCN(c2cnccn2)CC1` (centres unmarked) [Example 27, 3a,4,4a,5,6,6a,7,7a-Octahydro-2-[4-[4-(2-pyrazinyl)-1-piperazinyl]butyl]-4,7-etheno-1H-cyclobut[f]isoindole-1,3(2H)-dione, dihydrochloride, hemihydrate], the inhibition at 1 µM in experiment [1] was 41%. In addition, the Active at mg/kg with avoidance responding [2] was 40 (i.p.) mg/kg. Also, the Ki in experiment [3] (setting [5]) was 41 nM.

In the case of `O=C1C2C3C=CC(C4CCC34)C2C(=O)N1CCCCN1CCN(c2ncccn2)CC1` (centres unmarked) [Example 16, 2-[4-[4-(2-Pyrimidinyl)-1-piperazinyl]butyl]-octahydro-4,7-etheno-1H-cyclobut[f]isoindole-1,3-(2H)-dione, dihydrochloride, hydrate], the Ki is 85 nM in experiment [1] and 1.1 nM in experiment [3]. Further, the ED50 in the experiment with avoidance responding [4] (footnote 1 = AB50 value) is 47.4 mg/kg. Further, in the experiment on avoidance responding [2], the Active at mg/kg is recorded as 40 (i.p.) mg/kg.

`O=C1C2C3C=CC(C4C=CC43)C2C(=O)N1CCCCN1CCN(c2cnccn2)CC1` (centres unmarked) [Example 23, 3a,4,4a,6a,7,7a-Hexahydro-2-[4-[4-(2-pyrazinyl)-1-piperazinyl]butyl]-4,7-etheno-1H-cyclobut[f]isoindole-1,3-(2H)-dione, fumarate(1:1)]: the inhibition at 1 µM worked out at 13% in experiment [1] and 46% in experiment [3]. Further, the Active at mg/kg in the experiment on avoidance responding [2] is 40 (i.p.) mg/kg.

As for `O=C1C2C3C=CC(C4C=CC43)C2C(=O)N1CCCCN1CCN(c2ncccn2)CC1` (centres unmarked) [Example 3, 3a,4,4a,6a,7,7a-Hexahydro-2-[4-[4-(2-pyrimidinyl)-1-piperazinyl]butyl]-4,7-etheno-1H-cyclobut[f]isoindole-1,3(2H)-dione, dihydrochloride, sesquihydrate], the Ki was 345 nM in experiment [1] and 17 nM in experiment [3] (setting [5]). Moreover, the ED50 with avoidance responding [4] (footnote 1 = AB50 value) stood at 13.4 mg/kg. Also, the Active at mg/kg in the experiment on avoidance responding [2] is reported as 40 (i.p.) mg/kg.

As for `O=C1C2C3C=CC(C4CC34)C2C(=O)N1CCCCN1CCN(c2cnccn2)CC1` (centres unmarked) [Example 24, 4,4a,5,5a,6,6a-Hexahydro-2-[4-[4-(2-pyrazinyl)-1-piperazinyl]butyl]-4,6-ethenocycleprop[f]isoindole-1,3-(2H,3aH)-dione, dihydrochloride, hydrate], the inhibition at 1 µM in experiment [1] was 38%; in experiment [3], 68%. Besides, in the experiment on avoidance responding [4] (footnote 1 = AB50 value), the ED50 turned out to be 49.6 mg/kg. Besides, the Active at mg/kg in the experiment with avoidance responding [2] is 40 (i.p.) mg/kg.

In the case of `O=C1C2C3C=CC(C4CC34)C2C(=O)N1CCCCN1CCN(c2cncc(Cl)n2)CC1` (centres unmarked) [Example 1, 2-[4-[4-(6-Chloro-2-pyrazinyl)-1-piperazinyl]butyl]hexahydro-4,6-ethenocycloprop[f]isoindole-1,3(2H,3aH)-dione, dihydrochloride, sesquihydrate], the values for the Ki in experiment [1] and in experiment [3] (setting [5]) were 690 nM and 162 nM, respectively. Further, in the experiment on avoidance responding [4] (footnote 1 = AB50 value), the ED50 was determined as 40 mg/kg. The Active at mg/kg with avoidance responding [2] was 40 (i.p.)* mg/kg.

`O=C1C2C3C=CC(CCC3)C2C(=O)N1CCCCN1CCN(c2ncccn2)CC1` (centres unmarked) [Example 21, 4,5,6,7,8,8a-Hexahydro-2-[4-[4-(2-pyrimidinyl)-1-piperazinyl]butyl]-4,8-ethenocyclohepta[c]pyrrole-1,3(2H,3aH)-dione, dihydrochloride, hemihydrate]: the inhibition at 1 µM in experiment [1] is 53%. For the same compound, the Active at mg/kg in the experiment on avoidance responding [2] is on record as 40 (i.p.) mg/kg. In addition, the Ki in experiment [3] (setting [5]) is 12 nM.

Consider `O=C1C2C3CCC(C4CC43)C2C(=O)N1CCCCN1CCN(c2ncccn2)CC1` (centres unmarked) [Example 7, 2-[4-[4-(2-Pyrimidinyl)-1-piperazinyl]butyl]octahydro-4,6-ethanocycloprop[f]isoindole-1,3-(2H, 3aH)-dione, dihydrochloride, dihydrate], for which the Ki in experiment [1] was 140 nM; in experiment [3] (setting [5]), 13.9 nM. Also, the Active at mg/kg with avoidance responding [2] is reported as 40 (i.p.) mg/kg.

With `O=C1C2C3C=CC(C3)C2C(=O)N1CCCCN1CCN(c2cncc(Cl)n2)CC1` (centres unmarked) [Example 13, 3a,4,7,7a,-Tetrahydro-2-[4-[4-(6-chloro-2-pyrazinyl)-1-piperazinyl]butyl]-4,7-methano-1H-isoindole-1,3(2H)-dione hydrochloride hydrate], the inhibition at 1 µM in experiment [1] worked out at 1%; in experiment [3] it was 74%. Moreover, the ED50 with avoidance responding [4] (footnote 1 = AB50 value) came to 39.7 mg/kg. Besides, the Active at mg/kg in the experiment with avoidance responding [2] was 40 (i.p.) mg/kg.

For `Cl.O.O=C1C2C3C=CC(CCC3)C2C(=O)N1CCCCN1CCN(c2cncc(Cl)n2)CC1` (centres unmarked) [Example 22, 2-[4-[4-(6-Chloro-2-pyrazinyl)-1-piperazinyl]butyl]-4,5,6,7,8,8a-hexahydro-4,8-ethenocyclohepta[c]pyrrole-1,3(2H,3aH)-dione, hydrochloride, hydrate], the inhibition at 1 µM in experiment [1] turned out to be 43%. Further, the ED50 with avoidance responding [4] stood at 68.4 mg/kg. The Active at mg/kg with avoidance responding [2] is on record as 40 (i.p.) mg/kg.
